Our source for the IC50 and EC50 values is US12410160B2 (Gilead Sciences, Inc., priority 2021, dated 2025).

pEC50, pIC50: −log10 of the molar value. Bounds are passed on as bounds.

The target in assay [1] is human KHK-C (Homo sapiens (Human), UniProt P50053). The experiment in a line: KHK Biochemical Assay (IC50), ADP-Glo, KHK-C. As to conditions: ADP-Glo; average of at least two separate assays. The procedure, abridged: (§1)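 His-tagged enzyme expressed in BL21 (DE3), Ni-NTA purified. Compounds, serially diluted 1:3 in DMSO, pre-incubated 30 min with enzyme in 50 mM Hepes pH 7.4, 140 mM KCl, 5 mM MgCl2, 0.01% Triton-X, then ATP and fructose added; 4 h at room temperature. ADP formation read by ADP-Glo luminescence.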
Sequence of human KHK-C (P50053 whole entry): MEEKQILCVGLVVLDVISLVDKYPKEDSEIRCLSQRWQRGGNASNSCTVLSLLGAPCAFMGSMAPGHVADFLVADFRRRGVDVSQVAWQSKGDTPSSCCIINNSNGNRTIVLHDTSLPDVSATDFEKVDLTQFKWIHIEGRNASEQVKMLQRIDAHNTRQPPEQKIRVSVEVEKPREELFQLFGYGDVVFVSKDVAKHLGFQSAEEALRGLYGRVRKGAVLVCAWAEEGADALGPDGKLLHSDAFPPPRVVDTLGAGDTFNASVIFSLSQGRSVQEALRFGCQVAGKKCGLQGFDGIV
(ADP-Glo first removes unused ATP, then detects ADP through luciferase.)

Assay [2] has as its target KHK-C expressed in NRK-52E cells (Homo sapiens (Human), UniProt P50053). Description: KHK-C Cell-based Assay (EC50), NRK CTG, fructose-mediated ATP-depletion.
Description: Compounds were tested in a high-throughput 384-well assay format for their ability to attenuate fructose-mediated ATP-depletion in Normal Rat Kidney epithelial cells (NRK-52E) using the Cell-Titer Glo (CTG) assay, which measures cellular ATP levels based on luminescence signal by using the luciferase-luciferin system. Compounds were serially diluted (1:3) in DMSO.
The plates were incubated at 37° C., 5% CO2 for one day. Cells were then transduced on day 2 with 200 MOI of Adenovirus (VQAd KHKC C-(K)-DYK ViraQuest Inc.) using the same medium and method as day-1 to induce KHK-C expression in the cells. Cells were incubated at 37° C., 5% CO2 for one day. On day-3, the medium was changed to DMEM medium (Corning, Catalog #10-014-CM) with 0.5% FBS and Penicillin-Streptomycin after washing the cells twice with sterile PBS on the BioTEK EL406 washer and dispenser. Test compounds were then diluted 200-fold into the assay plates using the BioMek FX and were incubated for 1 hour at 37° C., 5% CO2. 25 mM (final concentration) of fructose was then dispensed into the plates using the BioTEK EL406 dispenser and the plates were incubated at 37° C., 5% CO2 for 48 hours before addition of CTG reagent and measurement of luminescence signal.
In assay [3] the target is human KHK-A (Homo sapiens (Human), UniProt P50053). Description: KHK Biochemical Assay (IC50), ADP-Glo, KHK-A. As to conditions: ADP-Glo; average of at least two separate assays. Summed up:
as §1

Sequence of KHK-C expressed in NRK-52E cells (P50053 whole entry): as above
Sequence of human KHK-A (P50053 other isoform, or with tags, fused parts or gaps): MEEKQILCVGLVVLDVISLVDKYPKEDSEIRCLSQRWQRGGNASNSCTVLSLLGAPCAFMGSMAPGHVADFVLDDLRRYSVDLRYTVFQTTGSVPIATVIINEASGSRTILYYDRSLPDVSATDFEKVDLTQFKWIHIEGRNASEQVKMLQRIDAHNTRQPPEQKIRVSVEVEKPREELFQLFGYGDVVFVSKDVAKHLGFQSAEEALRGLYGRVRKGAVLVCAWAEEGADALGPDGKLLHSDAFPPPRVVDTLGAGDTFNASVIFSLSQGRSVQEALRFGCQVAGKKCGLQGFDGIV

For orientation: pIC50 means −log10 of the IC50, conventionally taken in molar units. A high value points to a small IC50. A word on the pEC50: it is the EC50 on a negative log10 scale, so that one unit is a factor of ten. A higher pEC50 goes with a low EC50. Take `C[C@H]1CCN1c1nc2c(c(-c3ccc4[nH]c(=O)[nH]c4c3)n1)CCC2` [Example 247, 5-[2-[(2S)-2-methylazetidin-1-yl]-6,7-dihydro-5H-cyclopenta[d]pyrimidin-4-yl]-1,3-dihydrobenzimidazol-2-one]: the pIC50 in assay [1] and in assay [3] was 7.30 in each case. The pEC50 in assay [2] was 6.97.

As to `C[C@H]1CCN1c1nc2c(c(-c3ccc4c(c3)CC(=O)N4)n1)CCC2` [Example 248, 5-[2-[(2S)-2-methylazetidin-1-yl]-6,7-dihydro-5H-cyclopenta[d]pyrimidin-4-yl]indolin-2-one], the pIC50 is less than 7.00 in assay [1] and 7.10 in assay [3]. For the same molecule, the pEC50 in assay [2] was 6.81.

For the molecule `C[C@H]1CCN1c1nc2c(c(-c3ccc(C45CC(C(=O)O)(C4)C5)cc3)n1)CCC2` [Example 249, 3-[4-[2-[(2S)-2-methylazetidin-1-yl]-6,7-dihydro-5H-cyclopenta[d]pyrimidin-4-yl]phenyl]bicyclo[1.1.1]pentane-1-carboxylic acid], the results for the negative logarithm of the IC50 (pIC50) in assay [1] and in assay [3] were 7.02 and 6.98, respectively. This molecule gave a pEC50 in assay [2] of 6.29.

With `C[C@H]1CCN1c1nc2c(c(-c3ccc(C45CC(C(N)=O)(C4)C5)cc3)n1)CCC2` [Example 250, 3-[4-[2-[(2S)-2-methylazetidin-1-yl]-6,7-dihydro-5H-cyclopenta[d]pyrimidin-4-yl]phenyl]bicyclo[1.1.1]pentane-1-carboxamide], the negative-log IC50 (pIC50) is 6.89 in assay [1] and 6.71 in assay [3]. Also, the negative-log EC50 (pEC50) in assay [2] is 6.07.

Regarding `C[C@H]1CCN1c1nc2c(c(-c3ccc4[nH]c(=O)n(C)c4c3)n1)CCC2` [Example 251, 3-methyl-5-[2-[(2S)-2-methylazetidin-1-yl]-6,7-dihydro-5H-cyclopenta[d]pyrimidin-4-yl]-1H-benzimidazol-2-one], the pIC50 is 6.87 in assay [1] and 6.90 in assay [3]. This molecule also gave a pEC50 in assay [2] of 6.61.

As for `C[C@H]1CCN1c1nc2c(c(-c3ccc(C4(C(N)=O)CC4)cc3)n1)CCC2` [Example 252, 1-[4-[2-[(2S)-2-methylazetidin-1-yl]-6,7-dihydro-5H-cyclopenta[d]pyrimidin-4-yl]phenyl]cyclopropanecarboxamide], the pIC50 in assay [1] was 6.02; in assay [3], 6.11. In assay [2], this molecule showed a negative logarithm of the EC50 (pEC50) of 5.78.

As for `C[C@H]1CCN1c1nc2c(c(-c3cccc(C4(C(=O)O)CC4)c3)n1)CCC2` [Example 253, 1-[3-[2-[(2S)-2-methylazetidin-1-yl]-6,7-dihydro-5H-cyclopenta[d]pyrimidin-4-yl]phenyl]cyclopropanecarboxylic acid], the negative logarithm of the IC50 (pIC50) in assay [1] was 6.62; in assay [3], 6.69. The molecule further gave a pEC50 in assay [2] of 5.56.

Regarding `C[C@H]1CCN1c1nc2c(c(-c3cccc(C4(C(N)=O)CC4)c3)n1)CCC2` [Example 254, 1-[3-[2-[(2S)-2-methylazetidin-1-yl]-6,7-dihydro-5H-cyclopenta[d]pyrimidin-4-yl]phenyl]cyclopropanecarboxamide], the figures for the negative logarithm of the IC50 (pIC50) in assay [1] and in assay [3] were 6.29 and 6.22, respectively. The negative-log EC50 (pEC50) in assay [2] is 6.22.

With `C[C@H]1CCN1c1nc2c(c(-c3ccc(C(O)C4(C#N)CC4)cc3)n1)CCC2` (stereo partly drawn) [Example 255, 1-[hydroxy-[4-[2-[(2S)-2-methylazetidin-1-yl]-6,7-dihydro-5H-cyclopenta[d]pyrimidin-4-yl]phenyl]methyl]cyclopropanecarbonitrile], the pIC50 in assay [1] was 7.18; in assay [3] it was 7.30. This molecule also had a pEC50 in assay [2] of 7.15.

For `C[C@H]1CCN1c1nc2c(c(-c3ccc(C(O)C(F)F)cc3)n1)CCC2` (stereo partly drawn) [Example 256, 2,2-difluoro-1-[4-[2-[(2S)-2-methylazetidin-1-yl]-6,7-dihydro-5H-cyclopenta[d]pyrimidin-4-yl]phenyl]ethanol], the pIC50 in assay [1] was 6.58; in assay [3], 6.28. For the same molecule, the pEC50 in assay [2] was 6.79.

As for `C[C@H]1CCN1c1nc2c(c(-c3ccc(C(O)CF)cc3)n1)CCC2` (stereo partly drawn) [Example 257, 2-fluoro-1-[4-[2-[(2S)-2-methylazetidin-1-yl]-6,7-dihydro-5H-cyclopenta[d]pyrimidin-4-yl]phenyl]ethanol], the values for the pIC50 in assay [1] and in assay [3] were 6.89 and 6.70, respectively. In assay [2], the negative logarithm of the EC50 (pEC50) is 6.73.

Consider `C[C@H]1CCN1c1nc2c(c(-c3cccc(OC(F)F)c3)n1)CCC2` [Example 258, 4-[3-(difluoromethoxy)phenyl]-2-[(2S)-2-methylazetidin-1-yl]-6,7-dihydro-5H-cyclopenta[d]pyrimidine], for which the figures for the pIC50 in assay [1] and in assay [3] were 5.55 and 5.70, respectively. This molecule also showed a pEC50 in assay [2] of 6.28.

For `C[C@H]1CCN1c1nc2c(c(-c3cnc4c(c3)NCCO4)n1)CCC2` [Example 263, 7-[2-[(2S)-2-methylazetidin-1-yl]-6,7-dihydro-5H-cyclopenta[d]pyrimidin-4-yl]-2,3-dihydro-1H-pyrido[2,3-b][1,4]oxazine], the pIC50 in assay [1] was 7.30; in assay [3], 7.02. The pEC50 in assay [2] is 6.81.

Regarding `C[C@]1(O)CCN(c2nc3c(c(-c4ccc(C(N)=O)cc4)n2)CCC3)C1` [Example 268, 4-[2-[(38)-3-hydroxy-3-methyl-pyrrolidin-1-yl]-6,7-dihydro-5H-cyclopenta[d]pyrimidin-4-yl]benzamide], the pIC50 in assay [1] and in assay [3] was less than 5.30 in each case. In assay [2], this molecule had a negative-log EC50 (pEC50) of less than 5.30.

Regarding `C[C@H]1CCN1c1nc(-c2cccc(C(N)=O)c2)c2c(cnn2C)n1` [Example 271, (S)-3-(1-methyl-5-(2-methylazetidin-1-yl)-1H-pyrazolo[4,3-d]pyrimidin-7-yl)benzamide], the pIC50 in assay [1] was 6.27; in assay [3] it was 6.29. In assay [2], this molecule gave a negative logarithm of the EC50 (pEC50) of 5.63.

For the molecule `C[C@H]1CCN1c1nc2c(c(-c3ccc4c(c3)CCO4)n1)CCC2` [Example 274, (S)-4-(2,3-dihydrobenzofuran-5-yl)-2-(2-methylazetidin-1-yl)-6,7-dihydro-5H-cyclopenta[d]pyrimidine], the results for the pIC50 in assay [1] and in assay [3] were 6.85 and 6.69, respectively. In assay [2], this molecule had a pEC50 of 6.69.

`C[C@H]1CCN1c1nc2c(c(-c3ccc4c(ccn4C)c3)n1)CCC2` [Example 275, (S)-4-(1-methyl-1H-indol-5-yl)-2-(2-methylazetidin-1-yl)-6,7-dihydro-5H-cyclopenta[d]pyrimidine]: the pIC50 in assay [1] was 6.21; in assay [3], 5.98. The same molecule showed a pEC50 in assay [2] of 6.54.

Regarding `CC(O)c1cccc(-c2nc(N3CC[C@@H]3C)nc3c2CCC3)c1` (stereo partly drawn) [Example 276, 1-(3-(2-((S)-2-methylazetidin-1-yl)-6,7-dihydro-5H-cyclopenta[d]pyrimidin-4-yl)phenyl)ethan-1-ol], the pIC50 in assay [1] was 7.16; in assay [3], 7.18. In addition, in assay [2], the pEC50 was 6.96.

For `C[C@H]1CCN1c1nc2c(c(-c3cccc(CNS(C)(=O)=O)c3)n1)CCC2` [Example 277, (S)—N-(3-(2-(2-methylazetidin-1-yl)-6,7-dihydro-5H-cyclopenta[d]pyrimidin-4-yl)benzyl)methanesulfonamide], the negative-log IC50 (pIC50) in assay [1] was 7.82; in assay [3] it was 7.92. Moreover, in assay [2], the pEC50 is 7.57.

Turning to `C[C@H]1[C@H](F)CN1c1nc2c(c(-c3cccc(CNS(C)(=O)=O)c3)n1)CCC2` [Example 284], the results for the negative-log IC50 (pIC50) in assay [1] and in assay [3] were 7.79 and 7.66, respectively. The molecule also showed a pEC50 in assay [2] of 7.25.

Regarding `C[C@H]1[C@H](O)CN1c1nc2c(c(-c3ccc4c(c3)CCNC4=O)n1)CCC2` [Example 288], the negative logarithm of the IC50 (pIC50) was 7.35 in assay [1] and 6.99 in assay [3]. In assay [2], this molecule gave a negative logarithm of the EC50 (pEC50) of 6.97.

As to `C[C@H]1[C@H](F)CN1c1nc2c(c(-c3ccc4c(c3)CCNC4=O)n1)CCC2` [Example 289], the pIC50 in assay [1] was 7.76; in assay [3], 7.24. Also, the pEC50 in assay [2] is 7.46.

Regarding `C[C@H]1[C@H](F)CN1c1nc2c(c(-c3cccc(NS(C)(=O)=O)c3)n1)CCC2` [Example 290, N-(3-(2-((2S,3R)-3-fluoro-2-methylazetidin-1-yl)-6,7-dihydro-5H-cyclopenta[d]pyrimidin-4-yl)phenyl)methanesulfonamide], the values for the pIC50 in assay [1] and in assay [3] were 7.51 and 7.30, respectively. Besides, the negative logarithm of the EC50 (pEC50) in assay [2] is 7.15.

For `C[C@H]1CCN1c1nc2c(c(-c3ccc(C(N)=O)c(Cl)c3)n1)CCC2` [Example 303, (S)-2-chloro-4-(2-(2-methylazetidin-1-yl)-6,7-dihydro-5H-cyclopenta[d]pyrimidin-4-yl)benzamide], the pIC50 was 7.30 in assay [1] and 7.53 in assay [3]. This molecule gave a negative logarithm of the EC50 (pEC50) in assay [2] of 7.04.

Consider `C[C@H]1[C@H](O)CN1c1nc2c(c(-c3ccc(C(N)=O)c(F)c3)n1)CCC2` [Example 307], for which the results for the pIC50 in assay [1] and in assay [3] were 7.16 and 7.06, respectively. The molecule also had a negative-log EC50 (pEC50) in assay [2] of 6.78.

Consider `C[C@H]1[C@H](O)CN1c1nc2c(c(-c3ccc(C(N)=O)c(Cl)c3)n1)CCC2` [Example 308], for which the negative-log IC50 (pIC50) in assay [1] is 7.01; in assay [3] it was 6.89. In addition, in assay [2], the negative-log EC50 (pEC50) is 6.53.

Regarding `COc1cc(-c2nc(N3CC[C@@H]3C)nc3c2CCC3)ccc1C(N)=O` [Example 309, (S)-2-methoxy-4-(2-(2-methylazetidin-1-yl)-6,7-dihydro-5H-cyclopenta[d]pyrimidin-4-yl)benzamide], the pIC50 in assay [1] is 7.76; in assay [3], 7.72. Further, in assay [2], the pEC50 is 7.80.

`COc1cc(-c2nc(N3CC[C@@H]3C)nc3c2CCC3)ccc1C#N` [Example 310, (S)-2-methoxy-4-(2-(2-methylazetidin-1-yl)-6,7-dihydro-5H-cyclopenta[d]pyrimidin-4-yl)benzonitrile]: the results for the negative-log IC50 (pIC50) in assay [1] and in assay [3] were 6.26 and 6.35, respectively. This molecule gave a negative logarithm of the EC50 (pEC50) in assay [2] of 5.74.
